Measured values taken from publication PMC7449411, “In silico discovery and biological validation of ligands of FAD synthase, a promising new antimicrobial target” (PLoS Computational Biology, 2020).
Values after ≈ are worked out from the molar mass of the structure shown.

Experiments:
CaFADS = target: T1, CaFADS (Corynebacterium ammoniagenes, UniProt Q59263); assay: Differential scanning fluorescence (thermal denaturation) binding to CaFADS
T1 construct: made in house; host or cells: Escherichia coli BL21(DE3)
T1 sequence (Q59263 whole entry): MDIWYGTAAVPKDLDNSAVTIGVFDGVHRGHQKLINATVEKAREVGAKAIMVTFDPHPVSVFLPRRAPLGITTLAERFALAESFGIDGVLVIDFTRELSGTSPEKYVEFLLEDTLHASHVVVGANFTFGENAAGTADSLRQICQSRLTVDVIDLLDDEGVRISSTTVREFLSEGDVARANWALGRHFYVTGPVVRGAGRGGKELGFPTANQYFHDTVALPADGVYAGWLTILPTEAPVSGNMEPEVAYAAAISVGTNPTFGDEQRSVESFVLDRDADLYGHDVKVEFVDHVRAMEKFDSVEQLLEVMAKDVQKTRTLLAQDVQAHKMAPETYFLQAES
Summary of the method: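 Thermal shift with 2 μM CaFADS, compound at 5-250 μM (2% DMSO) and 5x SYPRO Orange in 20 mM PIPES pH 7.0, 10 mM MgCl2, heated 25-100 °C at 1 °C/min. Kd estimated by fitting ligand-induced shift in midpoint denaturation temperature (ΔTm) to a stabilization equation.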

FMNAT activity of CaFADS = target: T2, FMNAT activity of CaFADS (Corynebacterium ammoniagenes, UniProt Q59263); assay: Inhibition of the FMNAT activity of CaFADS; assay type: biochemical; details: at the maximal compound concentration assayed (250 μM)
T2 construct: made in house; host or cells: Escherichia coli BL21(DE3)
T2 sequence (Q59263 whole entry): as above
Description: To determine the compound’s ability to inhibit the RFK and/or the FMNAT activities of CaFADS, both enzymatic activities were quantitatively measured in the absence and presence of the compounds following previously described protocols. Reaction mixtures contained 50 μM ATP, 5 μM RF in 20 mM PIPES, pH 7.0, 0.8 mM MgCl2, when assaying the RFK activity, and 50 μM ATP, 10 μM FMN in 20 mM PIPES, pH 7.0, 10 mM MgCl2 when measuring the FMNAT reaction. Each compound was tested at 250 μM (0.5% residual final concentration of DMSO) for each of the two enzymatic reactions. The samples were pre-incubated at 25 °C, the reaction was then initiated by the addition of ∼ 40 nM CaFADS (final concentration) and allowed for 1 min. Finally, the reaction was stopped by boiling the samples for 5 min and the denatured protein was eliminated through centrifugation. The transformation of RF into FMN and FAD (RFK activity) and of FMN into FAD (FMNAT activity) was evaluated through flavins separation by HPLC (Waters), as previously described. All the experiments were performed in triplicate. To evaluate the potency of compounds as inhibitors, we took advantage of the decrease in quantum yield of fluorescence when FMN is transformed into FAD, which allows to follow such transformation in a continuous system. Measurements were carried out using a microplate reader Synergy HT multimode plate reader (Biotek) with BRAND 96-well plates pure Grade. Reaction mixtures contained 5 μM RF or FMN, and 50 μM ATP in 20 mM PIPES, pH 7.0, 10 mM MgCl2, and the inhibitor compound in a 5-250 μM concentration range (2% residual final concentration of DMSO). Reactions were initiated through addition of 0.4 μM CaFADS, being the final reaction volume 100 μL. Flavin fluorescence (excitation at 440 nm and emission at 530 nm) was registered at 25 °C, every 50 s during 15 min. The fluorescence change per time unit (ΔF/Δt) was calculated as the slope of the resulting fluorescence decays recorded between 0 and 6 min (linear decay of the fluorescence). Controls which contained the reaction mixture without the enzyme and without any potential CaFADS inhibitory compound were included in the assay and referred as the 0% and 100% of enzymatic activity, respectively. IC50 was calculated as the concentration of compound required for a 50% inhibition of the enzymatic activity.

C. ammoniagenes = assay: MIC, resazurin broth microdilution; assay type: cell-based, Corynebacterium ammoniagenes; details: for MIC: C. ammoniagenes
C. glutamicum = assay: MIC, resazurin broth microdilution; assay type: cell-based, Corynebacterium glutamicum; details: media BHI
C. diphteriae = assay: MIC, resazurin broth microdilution; assay type: cell-based, Corynebacterium diphteriae
M. tuberculosis = assay: MIC, resazurin broth microdilution; assay type: cell-based, Mycobacterium tuberculosis
M. smegmatis = assay: MIC, resazurin broth microdilution; assay type: cell-based, Mycobacterium smegmatis; details: media 7H9G-ADC
S. pneumoniae = assay: MIC, resazurin broth microdilution; assay type: cell-based, Streptococcus pneumoniae
E. coli = assay: MIC, resazurin broth microdilution; assay type: cell-based, Escherichia coli; details: media LB
L. monocytogenes = assay: MIC, resazurin broth microdilution; assay type: cell-based, Listeria monocytogenes; details: media BHI
P. aeruginosa = assay: MIC, resazurin broth microdilution; assay type: cell-based, Pseudomonas aeruginosa; details: media MH
S. thyphimurium = assay: MIC, resazurin broth microdilution; assay type: cell-based, Salmonella thyphimurium; details: media MH
Bacillus spp. = assay: MIC, resazurin broth microdilution; assay type: cell-based, Bacillus sp.; details: media MH
Mycobacteriumspecies = assay: MIC against Mycobacterium species (S5 Fig legend); assay type: cell-based
A549 = assay: MTT cytotoxicity assay; assay type: cell-based; details: 24 h, 4-512 μM range, read-out: IC50 (concentration causing 50% inhibition of cellular viability)
Description: (§1) The (4,5-dimethylthiazol-2-yl)-2,5-diphenyl tetrazolium bromide (MTT) assay was used to determine the effect of the compounds in cell growth and viability of HeLa (ATCC CCL-2) and A549 (ATCC CCL-185) eukaryotic cell lines. Both cell lines were routinely cultured in high-glucose DMEM (Lonza) supplemented with 10% fetal bovine serum, 4 mM glutamine GlutaMAX™ (Gibco) and 1x non-essential amino acids (Gibco), under 5% CO2 at 37 °C in a humidified atmosphere. For the MTT assay, cells were initially seeded in 96-well flat-bottom plates at a density of 10^4 cells per well and cultured for 24 h. Cultures were routinely tested for mycoplasma presence. The compounds were dissolved in fresh culture medium, added in a 4-512 μM concentration range (1% DMSO final concentration), and incubated with the cells for 24 h. Finally, formazan crystals were dissolved with pure DMSO and MTT absorbance was measured at 570 and 650 nm. Untreated cells were included as control of 100% viability. Assays were done in quadruplicate.

HeLa = assay: MTT cytotoxicity assay; assay type: cell-based; details: 24 h, 4-512 μM range, read-out: IC50 (concentration causing 50% inhibition of cellular viability)
Description: as §1

O=C(Nc1ccccc1C(=O)O)OCC1c2ccccc2-c2ccccc21 [Compound C5, 2-{[(9H-9-fluorenylmethoxy)carbonyl]amino}benzoic acid]
Tm shift of CaFADS thermal denaturation (CaFADS; 2 μM CaFADS, compound up to 250 μM): shifted it to lower values | Kd (CaFADS; from differential scanning fluorescence data fitted to Eq 2, 20 mM PIPES pH 7.0, 10 mM MgCl2, 2% DMSO, n = 3, mean ± SD): 1700 ± 700 nM | inhibition of the FMNAT activity of CaFADS (FMNAT activity of CaFADS): over 90% | MIC (C. ammoniagenes; media BHI): > 64 µM | MIC (C. ammoniagenes; media MH): 32 µM (≈ 11.5 µg/mL) | MIC (C. ammoniagenes; media MH+DFO): 32 µM (≈ 11.5 µg/mL) | MIC (C. ammoniagenes; media MH+DIP): 32 µM (≈ 11.5 µg/mL) | MIC (C. ammoniagenes; media MH+DIP+DFO): 32 µM (≈ 11.5 µg/mL) | MIC (μM) C. ammoniagenes (C. ammoniagenes; Table 3): 32 µM (≈ 11.5 µg/mL) | MIC (C. glutamicum): 32 µM (≈ 11.5 µg/mL) | MIC (C. diphteriae; media BHI): 64 µM (≈ 23 µg/mL) | MIC (C. diphteriae; media MH): 32 µM (≈ 11.5 µg/mL) | MIC (M. tuberculosis; M. tuberculosis, media 7H9G-ADC): 128 µM (≈ 46 µg/mL) | MIC (μM) M. tuberculosis (M. tuberculosis; Table 3): 128 µM (≈ 46 µg/mL) | MIC (M. smegmatis): > 256 µM | MIC (S. pneumoniae; media BHI): 128 µM (≈ 46 µg/mL) | MIC (S. pneumoniae; media MH): 256 µM (≈ 92 µg/mL) | MIC (E. coli): > 64 µM | MIC (L. monocytogenes): > 64 µM | MIC (P. aeruginosa): > 256 µM | MIC (S. thyphimurium): > 256 µM | MIC (Bacillus spp.): 32 µM (≈ 11.5 µg/mL) | MIC Mycobacterium species (Mycobacteriumspecies): lower than 256 μM | IC50 (A549): > 512 µM | IC50 (HeLa): > 512 µM
